Tests used:
Lcf [1] = target: T1, Lcf (Azumapecten farreri, UniProt A0A140H631); experiment: ESI-MS of transglycosylation products; assay type: biochemical; settings: glycosyl acceptor 2 mg/mL; donor laminarihexaose 2 mg/mL; 25 mM sodium acetate pH 5.6, 37 °C, 5 min
T1 construct: full length without signal peptide; secreted from Brevibacillus (pNCMO2, BamHI/XhoI); about 37 kDa; primers encode AGFRDDF at N-terminus and DYIEMIPH-stop at C-terminus
T1 sequence (A0A140H631 16-340): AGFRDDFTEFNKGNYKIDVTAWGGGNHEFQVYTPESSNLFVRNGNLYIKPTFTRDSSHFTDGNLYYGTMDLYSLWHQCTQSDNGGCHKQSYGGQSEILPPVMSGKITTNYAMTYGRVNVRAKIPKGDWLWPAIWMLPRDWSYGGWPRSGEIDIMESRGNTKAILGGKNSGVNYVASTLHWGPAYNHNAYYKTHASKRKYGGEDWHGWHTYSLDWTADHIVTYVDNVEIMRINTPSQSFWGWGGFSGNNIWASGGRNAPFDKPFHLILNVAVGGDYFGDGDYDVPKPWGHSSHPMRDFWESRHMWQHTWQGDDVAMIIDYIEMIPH

Lcf [2] = target: T1, Lcf; experiment: TLC of hydrolysis products; ESI-MS; assay type: biochemical; settings: 0.1% (w/w) substrate, 50 mM sodium acetate pH 5.6, 37 °C; hydrolysed, also glycosyl donor

Compound	ESI-MS of transglycosylation products (Lcf [1])	TLC of hydrolysis products; ESI-MS (Lcf [2])
OC[C@@H](O)[C@@H](O)[C@H](O)[C@@H](O)CO [D-sorbitol]	three transglycosylation products were observed in the presence of D-sorbitol	–
OC[C@H]1O[C@@H](O[C@@H]2[C@@H](O)[C@H](O[C@@H]3[C@@H](O)[C@H](O[C@@H]4[C@@H](O)[C@H](O[C@@H]5[C@@H](O)[C@H](O[C@H]6[C@H](O)[C@@H](CO)OC(O)[C@@H]6O)O[C@H](CO)[C@H]5O)O[C@H](CO)[C@H]4O)O[C@H](CO)[C@H]3O)O[C@H](CO)[C@H]2O)[C@H](O)[C@@H](O)[C@@H]1O (some centres unmarked) [laminarihexaose]	–	Lcf showed a more efficient cleavage rate toward laminarinexaose

— article PMC7551256, “Biochemical Characterization of a Novel Endo-1,3-β-Glucanase from the Scallop Chlamys farreri” (Marine Drugs, 2020)
